# From patent US5003011A, “Therapeutic decapeptides” (The Administrators of the Tulane Educational Fund, priority 1989, dated 1991)
# Numbered stars: 1 amine (or outer) side, 2 acyl side, 3 side chain; on linkers, the order of the positions; unused ones are H or OH. Square brackets hold non-standard residues; d marks the D form. Peptide text beside a SMILES is read from it. X1 = O=C([C@@H](CCCCNC1CCCC1)N[*:1])[*:2]; X2 = O=C([C@H](CCCCNC1CCCC1)N[*:1])[*:2]; d2Nal = N[C@H](Cc1ccc2ccccc2c1)C(=O)O
# Assay: Body weight ratio (FBW/IBW) in the MCF-7 subrenal capsule assay
# Assay type: in vivo, mice
# Description: Female CDF-1 mice were implanted with a human mammary tumor (MCF-7) underneath the kidney capsules on day 0. […] The negative control group received vehicle only and the positive control was ovariectomized on day 0.
# [1] = Table 2, 100 μg/inj. s.c., QDO5
structure (smiles),measurement,setting,value
"CC(C)C[C@H](NC(=O)[C@@H](Cc1c[nH]c2ccccc12)NC(=O)[C@H](Cc1ccc(O)cc1)NC(=O)[C@H](CO)NC(=O)[C@H](Cc1c[nH]c2ccccc12)NC(=O)[C@H](Cc1c[nH]cn1)NC(=O)[C@@H]1CCC(=O)N1)C(=O)N[C@@H](CCCNC(=N)N)C(=O)N1CCC[C@H]1C(=O)NCC(N)=O [BIM-21003, reference compound]",FBW/IBW = Final Body Weight/Initial Body Weight,[1],1.04
"CC(C)C[C@H](NC(=O)[C@@H](Cc1ccccc1)NC(=O)[C@H](Cc1ccc(O)cc1)NC(=O)[C@H](CO)NC(=O)[C@H](Cc1c[nH]c2ccccc12)NC(=O)[C@H](Cc1c[nH]cn1)NC(=O)[C@@H]1CCC(=O)N1)C(=O)N[C@@H](CCCNC(=N)N)C(=O)N1CCC[C@H]1C(=O)NCC(N)=O [BIM-21006, reference compound]",FBW/IBW = Final Body Weight/Initial Body Weight,[1],0.99
CC(=O)N[C@H](Cc1ccc2ccccc2c1)C(=O)N[C@H](Cc1ccc(Cl)cc1)C(=O)N[C@H](Cc1ccccc1)C(=O)N[C@@H](CO)C(=O)N[C@@H](Cc1ccc(O)cc1)C(=O)N[C@H](CCCNC(=N)N)C(=O)N[C@@H](Cc1ccccc1)C(=O)N[C@@H](CCCNC(=N)N)C(=O)N1CCC[C@H]1C(=O)N[C@H](C)C(N)=O [BIM-21009] (HELM PEPTIDE1{[ac].[O=C([C@@H](Cc1ccc2ccccc2c1)N[*:1])[*:2]].[O=C([C@@H](Cc1ccc(Cl)cc1)N[*:1])[*:2]].[dF].S.Y.[dR].F.R.P.[dA].[am]}$$$$V2.0),FBW/IBW = Final Body Weight/Initial Body Weight,"Table 2, 1 μg/inj. s.c., QDO5",0.98
same,FBW/IBW = Final Body Weight/Initial Body Weight,"Table 2, 10 μg/inj. s.c., QDO5",0.99
CC(=O)N[C@H](Cc1ccc2ccccc2c1)C(=O)N[C@H](Cc1ccccc1)C(=O)N[C@H](Cc1ccccc1)C(=O)N[C@@H](CO)C(=O)N[C@@H](Cc1ccc(O)cc1)C(=O)N[C@H](CCCNC(=N)N)C(=O)N[C@@H](Cc1ccccc1)C(=O)N[C@@H](CCCNC(=N)N)C(=O)N1CCC[C@H]1C(=O)N[C@H](C)C(N)=O [BIM-21011] (HELM PEPTIDE1{[ac].[O=C([C@@H](Cc1ccc2ccccc2c1)N[*:1])[*:2]].[dF].[dF].S.Y.[dR].F.R.P.[dA].[am]}$$$$V2.0),FBW/IBW = Final Body Weight/Initial Body Weight,"Table 2, 1 μg/inj. s.c., QDO5",0.98
same,FBW/IBW = Final Body Weight/Initial Body Weight,"Table 2, 10 μg/inj. s.c., QDO5",0.99
same,FBW/IBW = Final Body Weight/Initial Body Weight,"Table 2, 15 μg/inj. s.c., QDO5",0.99
CC(=O)N[C@H](Cc1ccc2ccccc2c1)C(=O)N[C@H](Cc1ccc(Cl)cc1)C(=O)N[C@H](Cc1c[nH]c2ccccc12)C(=O)N[C@@H](CO)C(=O)N[C@@H](Cc1ccc(O)cc1)C(=O)N[C@H](CCCNC(=N)N)C(=O)N[C@@H](Cc1ccccc1)C(=O)N[C@@H](CCCNC(=N)N)C(=O)N1CCC[C@H]1C(=O)N[C@H](C)C(N)=O [BIM-21023] (HELM PEPTIDE1{[ac].[O=C([C@@H](Cc1ccc2ccccc2c1)N[*:1])[*:2]].[O=C([C@@H](Cc1ccc(Cl)cc1)N[*:1])[*:2]].[dW].S.Y.[dR].F.R.P.[dA].[am]}$$$$V2.0),FBW/IBW = Final Body Weight/Initial Body Weight,"Table 3, 25 μg/inj. s.c., QDO5",1.01
CC(=O)N[C@H](Cc1ccc2ccccc2c1)C(=O)N[C@H](Cc1ccccc1)C(=O)N[C@H](Cc1ccccc1)C(=O)N[C@@H](CO)C(=O)N[C@@H](Cc1ccccc1)C(=O)N[C@H](CCCNC(=N)N)C(=O)N[C@@H](CC(C)C)C(=O)N[C@@H](CCCNC(=N)N)C(=O)N1CCC[C@H]1C(=O)N[C@H](C)C(N)=O [BIM-21024] (HELM PEPTIDE1{[ac].[O=C([C@@H](Cc1ccc2ccccc2c1)N[*:1])[*:2]].[dF].[dF].S.F.[dR].L.R.P.[dA].[am]}$$$$V2.0),FBW/IBW = Final Body Weight/Initial Body Weight,"Table 3, 25 μg/inj. s.c., QDO5",1.00
CC(=O)N[C@H](Cc1ccc2ccccc2c1)C(=O)N[C@H](Cc1ccccc1)C(=O)N[C@H](Cc1ccccc1)C(=O)N[C@@H](CO)C(=O)N[C@@H](Cc1ccc(O)cc1)C(=O)N[C@H](CCCCNCc1ccccc1)C(=O)N[C@@H](Cc1ccccc1)C(=O)N[C@@H](CCCNC(=N)N)C(=O)N1CCC[C@H]1C(=O)N[C@H](C)C(N)=O [BIM-21025] (HELM PEPTIDE1{[ac].[O=C([C@@H](Cc1ccc2ccccc2c1)N[*:1])[*:2]].[dF].[dF].S.Y.[O=C([C@@H](CCCCNCc1ccccc1)N[*:1])[*:2]].F.R.P.[dA].[am]}$$$$V2.0),FBW/IBW = Final Body Weight/Initial Body Weight,"Table 3, 25 μg/inj. s.c., QDO5",0.97
CC(=O)N[C@H](Cc1ccc2ccccc2c1)C(=O)N[C@H](Cc1ccccc1)C(=O)N[C@H](Cc1ccccc1)C(=O)N[C@@H](CO)C(=O)N[C@@H](Cc1ccc(O)cc1)C(=O)N[C@H](CCCCNC1CCCC1)C(=O)N[C@@H](Cc1ccccc1)C(=O)N[C@@H](CCCCNC1CCCC1)C(=O)N1CCC[C@H]1C(=O)N[C@H](C)C(N)=O [BIM-21026] (Ac-[d2Nal][dF][dF]SY[X1]F[X2]P[dA]-NH2),FBW/IBW = Final Body Weight/Initial Body Weight,"Table 3, 25 μg/inj. s.c., QDO5",1.01
"CC(C)[C@@H]1NC(=O)[C@H](CCCCN)NC(=O)[C@@H](Cc2c[nH]c3ccccc23)NC(=O)[C@H](Cc2ccc(O)cc2)NC(=O)[C@@H](NC(=O)[C@H](N)Cc2ccc3ccccc3c2)CSSC[C@@H](C(=O)N[C@H](C(N)=O)[C@@H](C)O)NC1=O [BIM-23014C, reference compound]",FBW/IBW = Final Body Weight/Initial Body Weight,"Table 3, 2 μg/inj. s.c., QDO5, b.i.d.",1.00
same,FBW/IBW = Final Body Weight/Initial Body Weight,"Table 3, 10 μg/inj. s.c., QDO5, b.i.d.",0.99
same,FBW/IBW = Final Body Weight/Initial Body Weight,"Table 3, 50 μg/inj. s.c., QDO5, b.i.d.",0.98
